Laboratory results as given in patent US20140357487A1, “PLANTS HAVING INCREASED TOLERANCE TO HERBICIDES” (BASF SE, priority 2011, published 2014).

Key:
[1] = system: transgenic soybean plants, Arabidopsis M335H, event SDS-9977; assay: Greenhouse testing of transgenic soybean plants, Arabidopsis M335H; assay type: in vivo, Glycine max; details: soybean SDS-9977, 5 days after herbicide treatment, average of 8 T1
Description: (§1) Various methods for the production of stably transformed plants are well known in the art. Coumarone-derivative herbicide tolerant soybean (Glycine max) or corn (Zea mays) plants can be produced by a method described by Olhoft et al. (US patent 2009/0049567). Briefly, HPPD or HST encoding polynucleotides are cloned into a binary vector using standard cloning techniques as described by Sambrook et al. (Molecular cloning (2001) Cold Spring Harbor Laboratory Press). The final vector construct contains an HPPD or HST encoding sequence flanked by a promoter sequence (e.g. the ubiquitin promoter (PcUbi) sequence) and a terminator sequence (e.g. the nopaline synthase terminator (NOS) sequence) and a resistance marker gene cassette (e.g. AHAS) (FIG. 2). Optionally, the HPPD or HST gene can provide the means of selection. Agrobacterium-mediated transformation is used to introduce the DNA into soybean's axillary meristem cells at the primary node of seedling explants. After inoculation and co-cultivation with Agrobacteria, the explants are transferred to shoot induction medium without selection for one week. The explants are subsequently transferred to shoot induction medium with 1-3 μM imazapyr (Arsenal) for 3 weeks to select for transformed cells. Explants with healthy callus/shoot pads at the primary node are then transferred to shoot elongation medium containing 1-3 μM imazapyr until a shoot elongates or the explant dies. After regeneration, transformants are transplanted to soil in small pots, placed in growth chambers (16 hr day/8 hr night; 25° C. day/23° C. night; 65% relative humidity; 130-150 mE m−2 s−1) and subsequently tested for the presence of the T-DNA via Taqman analysis. After a few weeks, healthy, transgenic positive, single copy events are transplanted to larger pots and allowed to grow in the growth chamber. Transformation of corn plants is done by a method described by McElver and Singh (WO 2008/124495). Plant transformation vector constructs containing HPPD or HST sequences are introduced into maize immature embryos via Agrobacterium-mediated transformation. Transformed cells are selected in selection media supplemented with 0.5-1.5 μM imazethapyr for 3-4 weeks. Transgenic plantlets are regenerated on plant regeneration media and rooted afterwards. Transgenic plantlets are subjected to TaqMan analysis for the presence of the transgene before being transplanted to potting mixture and grown to maturity in greenhouse. Arabidopsis thaliana is transformed with HPPD or HST sequences by floral dip method as described by McElver and Singh (WO 2008/124495). Transgenic Arabidopsis plants are subjected to Tag Man analysis for analysis of the number of integration loci. Transformation of Oryza sativa (rice) are done by protoplast transformation as described by Peng et al. (U.S. Pat. No. 6,653,529)
(§2) Transgenic plants expressing heterologous HPPD or HST enzymes are tested for tolerance against coumarone-derivative herbicides in greenhouse experiments.
(§3) For post emergence treatment, the test plants are first grown to a height of 3 to 15 cm, depending on the plant habit, and only then treated with the herbicides. For this purpose, the test plants are either sown directly and grown in the same containers, or they are first grown separately and transplanted into the test containers a few days prior to treatment.
(§4) Depending on the species, the plants are kept at 10-25° C. or 20-35° C. The test period extends over 3 weeks. During this time, the plants are tended and their response to the individual treatments is evaluated. […] Tolerance to coumarone-derivative herbicides can also be assessed in Arabidopsis. In this case transgenic Arabidopsis thaliana plants are assayed for improved tolerance to coumarone-derivative herbicides in 48-well plates. Seeds are surface sterilized by stirring for 5 min in ethanol+water (70+30 by volume), rinsing one time with ethanol+water (70+30 by volume) and two times with a sterile, deionized water. […]

[2] = system: transgenic corn plants, Arabidopsis Q293S, event SDM-71864; assay: Greenhouse testing of transgenic corn plants, Arabidopsis Q293S; assay type: in vivo, Zea mays; details: corn SDM-71864, 5 days after herbicide treatment, average of 8 T1
Description: as §1, §2, §3
as §4, with “The test period extends over 3 weeks.” left out

[3] = system: transgenic Arabidopsis plants overexpressing Barley HPPD (Seq ID: 2); assay: Arabidopsis growth inhibition in 48-well plates, line overexpressing Barley HPPD; assay type: in vivo, Arabidopsis thaliana; details: Barley (Seq ID: 2) overexpression line; plant growth IC50 of transgenic divided by that of wildtype plants
Description: Various methods for the production of stably transformed plants are well known in the art. Coumarone-derivative herbicide tolerant soybean (Glycine max) or corn (Zea mays) plants can be produced by a method described by Olhoft et al. (US patent 2009/0049567). Briefly, HPPD or HST encoding polynucleotides are cloned into a binary vector using standard cloning techniques as described by Sambrook et al. (Molecular cloning (2001) Cold Spring Harbor Laboratory Press). The final vector construct contains an HPPD or HST encoding sequence flanked by a promoter sequence (e.g. the ubiquitin promoter (PcUbi) sequence) and a terminator sequence (e.g. the nopaline synthase terminator (NOS) sequence) and a resistance marker gene cassette (e.g. AHAS) (FIG. 2). Optionally, the HPPD or HST gene can provide the means of selection. Agrobacterium-mediated transformation is used to introduce the DNA into soybean's axillary meristem cells at the primary node of seedling explants. After inoculation and co-cultivation with Agrobacteria, the explants are transferred to shoot induction medium without selection for one week. […]
Depending on the species, the plants are kept at 10-25° C. or 20-35° C. […] During this time, the plants are tended and their response to the individual treatments is evaluated. […] Tolerance to coumarone-derivative herbicides can also be assessed in Arabidopsis. […]

[4] = system: transgenic soybean plants, Arabidopsis Q293S, event SDS-10204; assay: Greenhouse testing of transgenic soybean plants, Arabidopsis Q293S; assay type: in vivo, Glycine max; details: soybean SDS-10204, 5 days after herbicide treatment, average of 8 T1
Description: as §1, §2, §3, §4

[5] = system: transgenic corn plants, Arabidopsis M335H, event SDM-71923; assay: Greenhouse testing of transgenic corn plants, Arabidopsis M335H; assay type: in vivo, Zea mays; details: corn SDM-71923, 5 days after herbicide treatment, average of 8 T1
Description: as §1, §2, §3, §4

[6] = system: transgenic soybean plants, Arabidopsis I393L L385V, event SDS-9908; assay: Greenhouse testing of transgenic soybean plants, Arabidopsis I393L L385V; assay type: in vivo, Glycine max; details: soybean SDS-9908, 5 days after herbicide treatment, average of 8 T1
Description: as §1, §2, §3, §4

CC1(C)c2cccnc2C(O)=C(c2ccc(Cl)nc2Cl)S1(=O)=O [Inhibitor 2, 7-(2,6-dichloro-3-pyridyl)-5,5-dimethyl-6,6-dioxo-thiopyrano[4,3-b]pyridin-8-ol]
Injury evaluation, scale of 1-100, bleaching phenotype ([1]; 2.5 g/ha): 1
Injury evaluation, scale of 1-100, bleaching phenotype ([1]; 10 g/ha): 1
Injury evaluation, scale of 1-100, bleaching phenotype ([1]; 40 g/ha): 5
Injury evaluation, scale of 1-100, bleaching phenotype ([2]; 2.5 g/ha): 4
Injury evaluation, scale of 1-100, bleaching phenotype ([2]; 10 g/ha): 17
Injury evaluation, scale of 1-100, bleaching phenotype ([2]; 40 g/ha): 15
Tolerance factor [3]: 3
Injury evaluation, scale of 1-100, bleaching phenotype ([4]; 2.5 g/ha): 1
Injury evaluation, scale of 1-100, bleaching phenotype ([4]; 10 g/ha): 4
Injury evaluation, scale of 1-100, bleaching phenotype ([4]; 40 g/ha): 21
Injury evaluation, scale of 1-100, bleaching phenotype ([5]; 2.5 g/ha): 6
Injury evaluation, scale of 1-100, bleaching phenotype ([5]; 10 g/ha): 4
Injury evaluation, scale of 1-100, bleaching phenotype ([5]; 40 g/ha): 6
Injury evaluation, scale of 1-100, bleaching phenotype ([6]; 2.5 g/ha): 3
Injury evaluation, scale of 1-100, bleaching phenotype ([6]; 10 g/ha): 3
Injury evaluation, scale of 1-100, bleaching phenotype ([6]; 40 g/ha): 5

Cc1c(C(=O)c2cnn(C)c2O)ccc(S(C)(=O)=O)c1C1=NOCC1 [Topramezone, reference compound]
Injury evaluation, scale of 1-100, bleaching phenotype ([1]; 6.25 g/ha): 8
Injury evaluation, scale of 1-100, bleaching phenotype ([1]; 25 g/ha): 4
Injury evaluation, scale of 1-100, bleaching phenotype ([1]; 100 g/ha): 15
Injury evaluation, scale of 1-100, bleaching phenotype ([2]; 6.25 g/ha): 1
Injury evaluation, scale of 1-100, bleaching phenotype ([2]; 25 g/ha): 4
Injury evaluation, scale of 1-100, bleaching phenotype ([2]; 100 g/ha): 6
Injury evaluation, scale of 1-100, bleaching phenotype ([4]; 6.25 g/ha): 10
Injury evaluation, scale of 1-100, bleaching phenotype ([4]; 25 g/ha): 17
Injury evaluation, scale of 1-100, bleaching phenotype ([4]; 100 g/ha): 21
Injury evaluation, scale of 1-100, bleaching phenotype ([5]; 6.25 g/ha): 0
Injury evaluation, scale of 1-100, bleaching phenotype ([5]; 25 g/ha): 0
Injury evaluation, scale of 1-100, bleaching phenotype ([5]; 100 g/ha): 0
Injury evaluation, scale of 1-100, bleaching phenotype ([6]; 6.25 g/ha): 2
Injury evaluation, scale of 1-100, bleaching phenotype ([6]; 25 g/ha): 7
Injury evaluation, scale of 1-100, bleaching phenotype ([6]; 100 g/ha): 14

CC1=NOC(c2c(Cl)ccc(C3=C(O)c4ncccc4C(C)(C)S3(=O)=O)c2Cl)C1 (centres unmarked) [Inhibitor 1, 7-[2,4-dichloro-3-(3-methyl-4,5-dihydroisoxazol-5-yl)phenyl]-5,5-dimethyl-6,6-dioxo-thiopyrano[4,3-b]pyridin-8-ol]
Tolerance factor [3]: 10
